Values quoted from earlier work in patent publication US10663473B2, “Method of identifying a status of a mucosal intestinal epithelial barrier to improve treatment of inflammatory bowel disease” (Maximus Diagnostic Technologies LLC, priority 2016, dated 2020).

System: IBD patients
Details: cited from earlier work

In the case of “vedolizumab: monoclonal antibody that specifically binds to integrin α4β7, sold under the name ENTYVIO by Takeda Pharmaceuticals”, the clinical response rate (particularly for Crohn's disease, compared with anti-TNF agents) is given as “low”.
In the case of “golimumab: monoclonal antibody to TNF-alpha sold under the trademark Simponi”, the “short-term and long-term clinical response rate” value (all UC patients) is given as 50%.
